From ChEMBL document CHEMBL3228000, “Absolute configuration of glycerol derivatives. 7. Enantiomers of 2-[[[2-(2,6-dimethoxyphenoxy)ethyl]amino]methyl]-1,4-benzodioxane (WB-4101), a potent competitive alpha-adrenergic antagonist” (J Med Chem, 1979) come the findings set out here.

Structures are written as SMILES.

A word on the pA2: it is a measure of antagonist potency on a negative log scale.

A short description of assay [1]: Competitive antagonist at alpha-adrenergic receptor in New Zealand rabbit aorta assessed as methoxamine-induced contraction after 45 mins. The class given is tissue-based, Oryctolagus cuniculus.
For assay [2], the target named is Adrenergic receptor alpha. As to the kind of experiment: Antagonist at postsynaptic alpha-adrenergic receptor in rat vas deferens. Format: tissue-based.

In the case of `COc1cccc(OC)c1OCCNC[C@H]1COc2ccccc2O1.Cl`, in assay [1], the pA2 is given as 9.02. Still for that read-out and setting: the value for `COc1cccc(OC)c1OCCNC[C@@H]1COc2ccccc2O1.Cl` was 7.35. On to `COc1cccc(OC)c1OCCNCC1COc2ccccc2O1` (racemic), for which the pA2 in assay [2] amounted to 9.8; in assay [1] it was 8.83.
